In the supplement of paper PMC10307832:

Key:
Assay in all cases: relative viability (nuclei count vs DMSO), 5 days (fraction); higher = more cells survive
Apatinib = compound: N#CC1(c2ccc(NC(=O)c3cccnc3NCc3ccncc3)cc2)CCCC1 [Apatinib]
Summary of the method: (§1)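 After an overnight hold at 37 °C, lung cancer cell lines in 1536-well plates were pinned with five library-drug doses (not always all listed), each √10 from the next, on vehicle-anchored plates. The cells stayed 5 days without fresh medium, then a one-step fix, permeabilisation and Hoechst stain preceded 4× imaging and MetaXpress nuclear counts. A plate passed only with control CV under 25% and at least one doubling. Viability is the median, over plates, of treated-well nuclei relative to vehicle-well nuclei.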

Metformin = compound: CN(C)C(=N)NC(=N)N [Metformin]
Summary of the method: as §1

Metformin + Foretinib = compound: CN(C)C(=N)NC(=N)N [Metformin] + COc1cc2c(Oc3ccc(NC(=O)C4(C(=O)Nc5ccc(F)cc5)CC4)cc3F)ccnc2cc1OCCCN1CCOCC1 [Foretinib] (partner 0.25 µM)
Summary of the method: (§2)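 One day after seeding in 1536-well plates, lung cancer cell lines were dosed by pin tool. Dosing was either single-drug or a fixed anchor-drug dose plus five library-drug doses (not always all listed) in √10 steps. After 5 days, nuclei were stained in one fix-and-stain step and counted on 4× images, and relative viability is the nuclei count of treated wells over that of vehicle wells, given as the median of duplicate plates.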

Metformin + Navitoclax = compound: CN(C)C(=N)NC(=N)N [Metformin] + CC1(C)CCC(c2ccc(Cl)cc2)=C(CN2CCN(c3ccc(C(=O)NS(=O)(=O)c4ccc(N[C@H](CCN5CCOCC5)CSc5ccccc5)c(S(=O)(=O)C(F)(F)F)c4)cc3)CC2)C1 [Navitoclax] (partner 0.5 µM)
Summary of the method: as §2

Cell Line	relative viability (Apatinib; 0.08 µM)	relative viability (Apatinib; 0.253 µM)	relative viability (Apatinib; 0.8 µM)	relative viability (Apatinib; 2.53 µM)	relative viability (Apatinib; 8 µM)	relative viability (Metformin; 31.62 µM)	relative viability (Metformin; 100 µM)	relative viability (Metformin; 316.23 µM)	relative viability (Metformin; 1000 µM)	relative viability (Metformin + Foretinib; first compound 31.62 µM)	relative viability (Metformin + Foretinib; first compound 100 µM)	relative viability (Metformin + Foretinib; first compound 316.23 µM)	relative viability (Metformin + Foretinib; first compound 1000 µM)	relative viability (Metformin + Navitoclax; first compound 31.62 µM)	relative viability (Metformin + Navitoclax; first compound 100 µM)	relative viability (Metformin + Navitoclax; first compound 316.23 µM)	relative viability (Metformin + Navitoclax; first compound 1000 µM)	relative viability (Metformin; 10 µM)	relative viability (Metformin + Foretinib; first compound 10 µM)	relative viability (Metformin + Navitoclax; first compound 10 µM)
HCC-827	1.02	1.02	0.96	0.976	1.02	0.988	0.993	0.967	0.997	0.899	0.974	0.807	0.889	0.96	0.982	0.923	1.01	–	–	–
BEN	1	0.92	1.02	0.821	0.807	1.4	1.29	1.17	1.47	1.25	1.04	0.799	1.33	0.0708	0.0914	0.0748	0.0712	1.26	1.08	0.0532
NCI-H1755	1.02	1	1	1.06	0.951	0.891	0.864	0.853	0.897	0.789	0.778	0.742	0.816	0.897	0.912	0.89	0.935	0.807	0.757	0.821
LOU-NH91	0.94	0.922	0.871	0.89	0.898	0.865	0.973	0.997	0.946	1.02	1.03	0.972	1.06	0.717	0.751	0.766	0.767	0.998	1.03	0.867
LC-2-ad	0.931	0.991	0.911	0.856	0.819	1.01	0.943	0.8	0.767	0.788	0.923	0.692	0.624	0.26	0.167	0.18	0.311	–	–	–
ChaGo-K-1	1.01	1.09	0.932	0.938	0.989	1.11	1.05	0.896	0.987	1.07	0.959	0.864	0.962	1.42	0.95	0.93	1.24	0.951	0.924	1
COR-L 105	0.976	1.04	0.85	0.814	0.855	1.04	1.16	0.994	0.964	1.38	1.23	1.14	0.791	0.923	0.843	0.654	0.571	1.02	1.23	0.812
NCI-H2126	0.975	0.904	0.969	0.918	1.02	0.992	0.981	0.932	1.03	1.18	1.22	0.862	1.15	0.834	0.842	0.771	0.787	0.905	1.12	0.788
Calu-6	1.01	1.01	0.908	0.868	0.799	0.961	0.953	0.931	0.964	0.878	0.917	0.795	0.821	0.784	0.855	0.7	0.619	0.899	0.809	0.726
NCI-H2228	1.13	1.08	0.993	0.867	0.846	1.08	0.803	0.907	1.22	0.862	1.09	0.671	0.768	1.04	–	0.815	1.05	0.913	0.804	1.02
IA-LM	0.955	0.9	0.994	0.694	0.535	1.16	1.15	1.07	1.15	1.27	1.43	1.11	1.28	0.93	0.941	0.686	0.645	0.982	1.18	–
NCI-H520	1.11	0.945	1.01	0.813	0.81	0.928	1.18	0.889	1.03	0.74	0.783	0.703	0.953	1.08	1.13	0.979	1.19	1.08	0.765	1.1
HCC-366	1.03	1	1.02	0.97	0.988	1.06	1.02	0.964	1.03	0.928	0.881	0.955	0.943	1.12	1.06	0.991	1.06	0.926	1.09	1.12
EMC-BAC-2	0.772	0.994	0.957	0.8	0.811	0.99	0.788	0.94	0.968	1.1	1.09	0.976	1.09	1.17	1.1	1.09	1.15	0.944	1.03	1.1
NCI-H647	1.05	1.07	0.993	0.837	0.852	1.05	1.05	0.813	0.939	1.07	1.26	0.932	1.1	1.13	1.44	1.12	0.763	0.978	1.08	0.869
NCI-H1944	0.948	0.921	0.886	0.791	0.921	1.1	0.954	0.882	1.04	0.995	1.03	0.924	0.996	1.04	1.04	0.966	1.07	0.845	0.881	0.968
